Results as given in paper PMC6253991, “2-(3,4-Dihydro-4-Oxothieno[2,3-d]pyrimidin-2-ylthio) Acetamides as a New Class of Falcipain-2 Inhibitors. 3. Design, Synthesis and Biological Evaluation” (Molecules, 2009).

How the values were obtained:
[1] = molecular target: T1, recombinant Falcipain-2 (FP-2) (Plasmodium falciparum, UniProt Q8I6U4); assay: Falcipain-2 enzyme inhibition assay (fluorogenic substrate Z-Leu-Arg-AMC); format: biochemical; conditions: for IC50 / inhibition at 10 µM: FP-2 30 nM, pH 5.5, 30 min preincubation; for IC50: substrate Z-Leu-Arg-AMC 25 μM; for inhibition at 10 µM: pH 5.5, compound at 10 μM, substrate 25 μM, read-out: Inhibition rate at 10 μM (%)
T1 construct: made in house
T1 sequence (Q8I6U4 244-484): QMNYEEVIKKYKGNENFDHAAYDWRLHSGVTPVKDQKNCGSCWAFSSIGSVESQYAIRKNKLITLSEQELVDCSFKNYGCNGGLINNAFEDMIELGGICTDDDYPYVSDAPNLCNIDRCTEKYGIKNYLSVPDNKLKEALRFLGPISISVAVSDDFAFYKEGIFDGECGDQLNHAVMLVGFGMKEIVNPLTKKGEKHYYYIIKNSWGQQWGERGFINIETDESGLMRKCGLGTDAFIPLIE
Procedure: For the primary assay, the percent inhibitions of the compounds at 10 μM were measured. […] Therefore, we determined their IC50 values (Table 1).
The purification and refolding of recombinant protein Falcipain-2 was performed as described by Shenai et al. IC50 values against recombinant Falcipain-2 were determined as described previously. FP-2 (30 nM) was incubated for 30 min at room temperature in 100 mM sodium acetate, pH 5.5, 10 mM DTT, with different concentrations of tested inhibitors. Inhibitor solutions were prepared from stock in DMSO (maximum concentration of DMSO in the assay was 1%). After 30 min incubation, the substrate Z-Leu-Arg-AMC (benzoxycarbonyl-Leu-Arg-7-amino-4-methylcoumarin, Bachem AG) in the same buffer was added to a final concentration of 25 μM. The increase in fluorescence (excitation at 355 nm and emission at 460 nm) was monitored for 30 min at room temperature with an automated microtiter plate spectrofluorimeter (Molecular Devices, Flex station). Half-maximal inhibitory concentration (IC50) was determined from plots of percent activity over compound concentration using GraphPad Prism software.

Structure (SMILES)	IC50 [1] [µM]	inhibition at 10 µM [1] [%]	melting point [°C]	inhibitory activity relative to prototype compound 1 (times greater) ([1]; ratio of IC50s against FP-2 versus compound 1)
C=CCn1c(SCC(=O)Nc2sc3c(c2C(N)=O)CCC3)nc2scc(-c3ccc(Cl)cc3)c2c1=O [Compound 3b, 2-(2-(3-Allyl-3,4-dihydro-4-oxo-5-(4-chlorophenyl)thieno[2,3-d]pyrimidin-2-ylthio)acetamido)-5,6-dihydro-4H-cyclopenta[b]thiophene-3-carboxamide]	2.95	85.7		
NC(=O)c1c(NC(=O)CSc2nc3scc(-c4ccccc4)c3c(=O)n2-c2ccc(Cl)cc2)sc2c1CCC2 [Compound 2d]	4.3	84.7	247 to 249	
C=CCn1c(SCC(=O)Nc2sc3c(c2C(N)=O)CCC3)nc2scc(-c3ccccc3)c2c1=O [Compound 1, 2-(2-(3-Allyl-3,4-dihydro-4-oxo-5-phenylthieno[2,3-d]pyrimidin-2-ylthio)acetamido)-5,6-dihydro-4H-cyclopenta[b]thiophene-3-carboxamide]	2.81	88.7		
NC(=O)c1c(NC(=O)CSc2nc3scc(-c4ccccc4)c3c(=O)n2-c2ccc([N+](=O)[O-])cc2)sc2c1CCC2 [Compound 2c]	2.77	85.4	271 to 274	
C=CCn1c(SCC(=O)Nc2sc3c(c2C(N)=O)CCC3)nc2sc3c(c2c1=O)CCCC3 [Compound 3a]	5.77	82.2		
NC(=O)c1c(NC(=O)CSc2nc3scc(-c4ccccc4)c3c(=O)n2C2CCCCC2)sc2c1CCC2 [Compound 2a, 2-(2-(3-Cyclohexyl-3,4-dihydro-4-oxo-5-phenylthieno[2,3-d]pyrimidin-2-ylthio)acetamido)-5,6-dihydro-4H-cyclopenta[b]thiophene-3-carboxamide]	1.46	> 90		~ 2 times
C=CCn1c(SCC(=O)Nc2sc3c(c2C(N)=O)CCC3)nc2scc(-c3cccc([N+](=O)[O-])c3)c2c1=O [Compound 3c, 2-(2-(3-Allyl-3,4-dihydro-4-oxo-5-(3-nitrophenyl)thieno[2,3-d]pyrimidin-2-ylthio)acetamido)-5,6-dihydro-4H-cyclopenta[b]thiophene-3-carboxamide]		53		
NC(=O)c1c(NC(=O)CSc2nc3scc(-c4ccccc4)c3c(=O)n2-c2cccc(F)c2)sc2c1CCC2 [Compound 2b]	2.05	79	234 to 239	
C=CCn1c(SCC(=O)Nc2sc(C(=O)OCC)c(C)c2C(N)=O)nc2scc(-c3ccccc3)c2c1=O [Compound 4e, Ethyl 5-(2-(3-allyl-3,4-dihydro-4-oxo-5-phenylthieno[2,3-d]pyrimidin-2-ylthio)acetamido)-4-carbamoyl-3-methylthiophene-2-carboxylate]	5.58	72	136 to 140	
C=CCn1c(SCC(=O)Nc2ccc(C(=O)OCC)cc2)nc2scc(-c3ccccc3)c2c1=O [Compound 4b, Ethyl 4-(2-(3-allyl-3,4-dihydro-4-oxo-5-phenylthieno[2,3-d]pyrimidin-2-ylthio)acetamido) benzoate]	5.7	94.3		
C=CCn1c(SCC(=O)Nc2sc3c(c2C(=O)OCC)CCC3)nc2scc(-c3ccccc3)c2c1=O [Compound 4a, Ethyl 2-(2-(3-allyl-3,4-dihydro-4-oxo-5-phenylthieno[2,3-d]pyrimidin-2-ylthio)acetamido)-5,6-dihydro-4H-cyclopenta[b]thiophene-3-carboxylate]	6.63	93.3	166 to 170	
C=CCn1c(SCC(=O)Nc2sc3c(c2C(N)=O)CCCC3)nc2scc(-c3ccccc3)c2c1=O [Compound 4d, 2-(2-(3-Alyl-3,4-dihydro-4-oxo-5-phenylthieno[2,3-d]pyrimidin-2-ylthio)acetamido)-4,5,6,7-tetra-hydrobenzo[b]thiophene-3-carboxamide]			212 to 214	
C=CCn1c(SCC(=O)Nc2ccc(F)c(Cl)c2)nc2scc(-c3ccccc3)c2c1=O [Compound 4f, 2-(3-Allyl-3,4-dihydro-4-oxo-5-phenylthieno[2,3-d]pyrimidin-2-ylthio)-N-(3-chloro-4-fluorophenyl)-acetamide]	5.43	> 90		
C=CCn1c(SCC(=O)Nc2nc3ccccc3s2)nc2scc(-c3ccccc3)c2c1=O [Compound 4c, 2-(3-Allyl-3,4-dihydro-4-oxo-5-phenylthieno[2,3-d]pyrimidin-2-ylthio)-N-(benzo[d]thiazol-2-yl)-acetamide]	3.31	90.3	192 to 194	
NC(=O)c1c(NC(=O)CSc2nc3scc(-c4ccccc4)c3c(=O)n2Cc2ccccc2)sc2c1CCC2 [Compound 2e]	5.74	> 90	163 to 167	
